{"source": "patent US12023315B2", "about": "“Pharmaceutical compositions and methods utilizing neostigmine and an NK-1 antagonist for treating myasthenia gravis” (priority 2017, dated 2024)", "tested_on": "gastro-intestinal side effects of neostigmine in human subjects", "assay": "Phase I single-blind, placebo-controlled study: single oral neostigmine bromide with or without single oral aprepitant", "assay_type": "in vivo", "settings": "human volunteers; single oral aprepitant (up to 125 mg) co-administered with first intolerable oral dose (FID) of neostigmine bromide; follow-up up to 8 hours", "experimental": "The ability of the NK1-antagonists for preventing the adverse effects of orally administered neostigmine bromide in humans is tested.\nA Phase I study is conducted in human subjects receiving a single oral dose of neostigmine bromide with or without a single oral dose of aprepitant hydrochloride dihydrate, as a representative NK1-antagonist. The study is a single center, single-blind, placebo-controlled study.\nTo be enrolled in the study, participants are to meet the following inclusion/exclusion criteria:\nKey Inclusion Criteria • 1. Male or female volunteers between the ages of 18 and 60 years inclusive are required to be in good health, to refrain from consuming xanthine, quinine and caffeine containing beverages, and to refrain from prolonged intensive physical exercise during the study conduct. • 2. […] Subjects had to be in good health according to their medical history including personal and family psychiatric history, physical examination, ECG, vital signs, and laboratory tests. […] Subjects had to be able to swallow multiple pills simultaneously.\nKey Exclusion Criteria • 1. Any clinically relevant acute or chronic disease which could interfere with the subjects' safety during the trial, expose them to undue risk, or interfere with the study objectives. • 2. […]"}
{"compound": "C[C@@H](O[C@H]1OCCN(Cc2nc(=O)[nH][nH]2)[C@H]1c1ccc(F)cc1)c1cc(C(F)(F)F)cc(C(F)(F)F)c1", "note": "[aprepitant, 5-[[(2R,3S)-2-[(1R)-1-[3,5-bis(trifluoromethyl)phenyl]ethoxy]-3-(4-fluorophenyl)-4-morpholinyl]methyl]-1,2-dihydro-3H-1,2,4-triazol-3-one]", "values": [{"measurement": "occurrence of gastro-intestinal AEs with neostigmine", "result": "prevents or attenuates the occurrence of gastro-intestinal AEs"}]}
